Experimental data: patent US20250281480A1, “PHARMACEUTICAL DRY POWDER INHALATION FORMULATION” (Bayer Aktiengesellschaft, priority 2021, published 2025)

Tests used:
plasma proteins = experiment: Protein binding via Transil assay, human plasma; format: in vitro ADME; conditions: human plasma
From the text: The distribution of a test substance between Transil® (phosphatidylcholine lipid bilayers immobilized on silica beads) and plasma is a characteristic feature of any pharmaceutical compound and is dependent on its extent of binding to plasma proteins. By comparing the distribution between Transil® and buffer with the distribution between Transil® and plasma of any species of interest, the unbound fraction in the plasma of the respective animal species can be calculated in vitro. The respective plasma and buffer concentrations were determined via a radioactivity analysis. A detailed description of the method and its validation was published by Schuhmacher et al. (2).

[1] = test system: anesthetized PAH minipigs; experiment: PAH minipig, intratracheal application of dry powder formulations and of different hydrates (PAP, BP); format: in vivo, Göttingen Minipigs; conditions: dry powder lactose formulation, i.t.
Description: Healthy Göttingen Minipigs® Ellegaard (Ellegaard, Denmark) of both sexes and having a weight of 2-6 kg were used. The animals were sedated by i.m. administration of about 25 mg/kg ketamine and about 10 mg/kg azaperone. Anaesthesia was initiated by i.v. administration of about 2 mg/kg ketamine and about 0.3 mg/kg midazolam. Maintenance of anaesthesia was by i.v. administration of about 7.5-30 mg/kg/h ketamine and about 1-4 mg/kg/h midazolam (rate of infusion 1-4 ml/kg/h) and about 150 μg/kg/h pancuronium bromide (for example Pancuronium-Actavis). After intubation, the animals were ventilated by the ventilator at a constant respiratory volume (10-12 ml/kg, 35 breaths/min; Avea®, Viasys Healthcare, USA, or Engström Carestation, GE Healthcare, Freiburg, Germany) such that an end-tidal CO2 concentration of about 5% was achieved. Ventilation was performed with room air, enriched with about 40% oxygen (normoxia). For the measurement of the haemodynamic parameters such as pulmonary arterial pressure (PAP), blood pressure (BP) and heart rate (HR), catheters were inserted into the carotid artery to measure the blood pressure, and a Swan-Ganz® catheter was introduced in a flow-directed manner via the jugular vein into the pulmonary artery. The haemodynamic signals were recorded and evaluated by means of pressure transducers (Combitransducer, B. Braun, Melsungen, Germany)/amplifiers and Ponemah® as data acquisition software.
About 0.3-0.75 μg/kg/min of 9,11-didesoxy-9α,11α-epoxymethanoprostaglandine F2α (U-44069; Sigma, cat. no. D0400, or Cayman Chemical Company, cat. no. 16440), dissolved in physiological saline, were infused to achieve an increase of the mean pulmonary arterial pressure to values of over 25 mmHg.
After characterization of the effects of comparative example 11 after nebulization of compound solutions, in a further step the effects of crystalline forms of comparative example 11, e.g. sesquihydrate, e.g. example 6e on PAP and BP after inhaled application of different dry powder lactose formulations (table 52) were studied in anesthetized PAH minipigs.
As reference pure Lactose vehicle was applied in the beginning of each experiment.

[2] = test system: unilateral ventilated minipig; experiment: Unilateral ventilated minipig model as a proxy of VQ-mismatch; format: in vivo; conditions: inhaled application
PAH-minipig = PAH-minipig model, inhaled application on top of PAH standard-of-care; format: in vivo; conditions: bosentan, sildenafil, Ilomedin, riociguat
[3] = Deposited lung dose with absorbing filters and prediction of human dose (PAH minipig model); format: in vivo
Description: The anesthetized thromboxane A2 challenged PAH-minipig model (see experimental part E-1) is considered to be the most relevant and sensitive model for the prediction of the human minimal effective and effective doses (MED, ED). To determine effective LDs, experiments were repeated with the difference that absorbing filters were attached at the end of the tubes to determine the deposited lung dose. […] Assuming a minimal effective ND of 3 μg/kg (5% reduction in PAP) the minimal effective deposited LD is considered as 0.15 μg/kg (see FIG. 1).
The nominal doses of 3, 10, 30 and 100 μg/kg of the minipig model were multiplied by the filter deposition factor of 5% resulting in 0.15, 0.5, 1.5 and 5 μg/kg lung deposited doses in the minipig. These values were multiplied by 60 kg to achieve the lung dose in humans. Thus, the FPD reflecting the PAP reduction for a 60 kg human are calculated to be 9, 30, 90 and 300 μg.
Thus, via a direct up-scaling from minipig, the predictive MED (5% PAP reduction) for a human based on a 60 kg body weight is calculated to be 9 μg LDD, not considering protein binding within the respiratory tract. As a surrogate for unbound concentrations, which are the likely active concentrations in the lung, we considered respective differences in fractions unbound in plasma of minipig and human. This consideration results in a minimum effective lung dose (LD) for a 60 kg participant of 41 μg LDD for the assumed 5% reduction on PAP. Consequently, the predictive minimal human effective dose is in the range from 9 μg LDD to 41 μg LDD based on a 60 kg body weight (see FIG. 2).
In order to generate a human dose estimate, experiments in the PAH minipig model for comparative example 11 were repeated with the difference that absorbing filters were attached at the end of the tubes to […] determine the deposited lung dose. […] The arithmetic mean of the aerosol fraction deposited on the filters is 5% based on all results of the filter experiments, resulting in relative lung deposited doses of about 0.15 μg/kg (3 μg/kg nominal dose), 0.5 μg/kg (10 μg/kg nominal dose), 1.5 μg/kg (30 μg/kg nominal dose) and 5 μg/kg (100 μg/kg nominal dose). Assuming a minimal effective nominal dose of 3 μg/kg for a 5% reduction in PAP and a mean nebulization efficiency of 5%, the minimal effective deposited lung dose is considered as 0.15 μg/kg based on the PAH minipig model. Therefore, for a human patient of 60 kg body weight a minimal effective lung deposited dose of 9-41 μg, depending on whether or not an effect of different protein binding (see table 37) is postulated. Considering 100 μg/kg as effective dose in the minipig model, 300-1370 μg lung deposited dose is postulated as effective dose, again depending on the consideration of different interspecies protein binding.

[4] = Storage stability of pseudopolymorphic forms (XRPD); format: physicochemical; conditions: same storage conditions as table 15

SMILES | free fraction, lower than comparative example 1 (plasma proteins) [times lower] | MED [1] [µg/kg] | effect on PAP and oxygenation [2] | effect on PAP on top of PAH standard-of-care (PAH-minipig) | Relative lung deposited dose in minipig ([3]; 3 μg/kg nominal dose) [µg/kg] | Relative lung deposited dose in minipig ([3]; 10 μg/kg nominal dose) [µg/kg] | Relative lung deposited dose in minipig ([3]; 30 μg/kg nominal dose) [µg/kg] | Relative lung deposited dose in minipig ([3]; 100 μg/kg nominal dose) [µg/kg] | storage stability [4]
O=C(O)c1ccc(CCN(CCc2ccccc2OCc2ccc(-c3ccc(C(F)(F)F)cc3)cc2Cl)[C@H]2CCCc3nc(C(=O)O)ccc32)cc1 [Comparative example 11, (5S)-5-{[2-(4-carboxyphenyl)ethyl][2-(2-{[3-chloro-4′-(trifluoromethyl)[biphenyl]-4-yl]methoxy}phenyl)ethyl]amino}-5,6,7,8-tetrahydroquinoline-2-carboxylic Acid] | 2 | < 7.5 | lowered PAP without negative effects on oxygenation | selectively decreased elevated PAP | 0.15 | 0.50 | 1.5 | 5.0 | 
O=C(O)c1ccc(CCN(CCc2ccccc2OCc2ccc(-c3ccc(C(F)(F)F)cc3)cc2Cl)[C@H]2CCCc3nc(C(=O)O)ccc32)cc1 [Example 4, (5S)—{[2-(4-Carboxyphenyl)ethyl][2-(2-{[3-chloro-4′-(trifluoromethyl)biphenyl-4-yl]methoxy}phenyl)-ethyl]amino}-5,6,7,8-tetrahydroquinoline-2-carboxylic Acid as Monohydrate I] |  |  |  |  |  |  |  |  | stable
